{"source": "patent US20050288292A1", "about": "“Pharmaceutical formulation and its use in the treatment of inner ear diseases” (priority 2002, published 2005)", "key": {"[1]": {"system": "muscular tinnitus (myognathic tinnitus)", "experiment": "Intravenous Caroverin in muscular (myognathic) tinnitus", "assay_type": "in vivo", "details": "intravenous administration", "source_text": "In addition, new trials by the inventor have shown that Caroverin is not indicated for the treatment of all forms of tinnitus. […] Muscular or myognathic tinnitus is identified by imparting an electrical charge to the chewing musculature, whereby the intensity and frequency of the symptoms of tinnitus can be altered. Myognathic tinnitus can substantially be caused to disappear when the tendon bundles of the middle ear musculature that operates the chain of auditory ossicles are surgically sectioned (tenotomy). The precise mechanism involved in this effect is still unclear."}, "[2]": {"system": "cochlear post-synaptic tinnitus", "details": "infusion; according to EP 0 542 689; cited from earlier work"}}}
{"smiles": "CCN(CC)CCn1c(=O)c(Cc2ccc(OC)cc2)nc2ccccc21", "note": "[Caroverin, 1-diethylaminoethyl-3-(p-methoxybenzyl)-1,2-dihydro-quinoxaline-2-one]", "values": [{"measurement": "response of muscular (myognathic) tinnitus", "setting": "[1]", "result": "not responsive"}, {"measurement": "treatability of cochlear post-synaptic tinnitus", "setting": "[2]", "result": "treatable"}]}
